From patent US20230150970A1, “AMINOPYRIMIDINE DERIVATIVES AND THEIR USE AS ARYL HYDROCARBON RECEPTOR MODULATORS” (DONG-A ST CO., LTD., priority 2020, published 2023)

molecular target: T1, AhR (Homo sapiens, UniProt P35869); test: In Vitro Assay 1: XRE-luciferase reporter assay, antagonism in human cell line (HepG2); details: Assay 1: AhR-Luc Human Antagonism (IC50, nM), values marked *: kynurenine 50 μM, 6 hours
T1 sequence (P35869 11-848): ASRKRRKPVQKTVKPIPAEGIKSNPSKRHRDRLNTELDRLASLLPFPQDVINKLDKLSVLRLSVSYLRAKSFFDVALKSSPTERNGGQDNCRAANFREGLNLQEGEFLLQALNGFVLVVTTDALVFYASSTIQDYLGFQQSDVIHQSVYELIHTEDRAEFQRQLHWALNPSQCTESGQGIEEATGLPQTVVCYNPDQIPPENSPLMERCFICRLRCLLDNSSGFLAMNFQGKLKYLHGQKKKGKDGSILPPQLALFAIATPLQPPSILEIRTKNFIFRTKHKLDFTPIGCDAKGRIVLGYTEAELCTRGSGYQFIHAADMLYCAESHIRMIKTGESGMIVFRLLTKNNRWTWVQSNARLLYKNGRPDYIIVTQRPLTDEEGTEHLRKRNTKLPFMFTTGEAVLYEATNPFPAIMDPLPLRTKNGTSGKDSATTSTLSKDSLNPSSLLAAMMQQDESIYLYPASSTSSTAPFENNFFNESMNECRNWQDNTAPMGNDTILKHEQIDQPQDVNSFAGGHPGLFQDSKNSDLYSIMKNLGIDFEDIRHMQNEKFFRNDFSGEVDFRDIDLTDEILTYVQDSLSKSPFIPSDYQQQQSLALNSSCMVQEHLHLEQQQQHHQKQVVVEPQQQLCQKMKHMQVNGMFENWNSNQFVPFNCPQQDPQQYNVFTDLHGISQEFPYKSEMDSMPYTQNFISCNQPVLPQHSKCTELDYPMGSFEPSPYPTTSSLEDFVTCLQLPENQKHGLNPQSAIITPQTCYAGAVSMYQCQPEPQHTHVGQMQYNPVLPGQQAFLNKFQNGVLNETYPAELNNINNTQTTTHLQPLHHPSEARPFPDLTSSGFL
Description: In Vitro XRE-Luciferase Reporter Assay (In Vitro Assay 1, 2, 3) AhR activation leads the induction of target gene expression such as CYP1A1 and CYPIB1 by AhR binding to AhR-responsive DNA elements also known as xenobiotics responsive elements (XREs). The assay for measuring AhR activity herein is the luciferase assay using cell lines transfected with luciferase reporter plasmid containing XREs at the upstream of the reporter gene. Cells transfected with XRE-luciferase reporter (XRE-Luc), plasmid drive luciferase activity reflecting activation and inhibition of AhR in the cells. […] Kynurenine (an endogenous AhR agonist), was used to stimulate cells to test antagonistic properties of the compounds. The half-maximal inhibitory concentration (IC50), or half-maximal effective concentration (EC50), value was calculated using nonlinear regression (four parameters), with Prism8.0 software (GraphPad).
In Vitro Assay 1: Antagonism in Human Cell Line
HepG2 (human hepatoma cell line) cell line with a XRE-luciferase reporter either transiently or stably (Invivogen) were plated in complete medium and incubated at 37° C. in a CO2 incubator. After 24 hours, cells were treated with kynurenine (50* or 200 μM) alone (negative control) or with test compounds for 6 hours. Luciferase activity was measured with a commercial kit such as the Promega Luciferase kit or Invivogen Luciferase kit. Relative luciferase activity (Firefly/Nano-Luc) was used to calculate IC50 values. […] (IC50 values are grouped as A, B, C and D, whereby A: IC50<0.01 μM; B: 0.01<IC50<0.1 μM; C: 0.1<IC50<1.0 μM; D: IC50>1.0 μM)

Row | Compound | IC50
1 | O=[N+]([O-])c1ccc(N2CCN(c3cc(-c4ccc(Cl)cc4)nc(-c4cccnc4)n3)CC2)cc1 [Example 121, 4-(4-chlorophenyl)-6-(4-(4-nitrophenyl)piperazin-1-yl)-2-(pyridin-3-yl)pyrimidine] | > 1000 nM
2 | CN1CCN(C2CCN(c3cc(-c4ccc(Cl)cc4)nc(-c4cccnc4)n3)C2)CC1 (centres unmarked) [Example 122, 4-(4-chlorophenyl)-6-(3-(4-methylpiperazin-1-yl)pyrrolidin-1-yl)-2-(pyridin-3-yl)pyrimidine] | 10 to 100 nM
3 | Clc1ccc(-c2cc(N3CCN(C(c4ccccc4)c4ccccc4)CC3)nc(-c3cccnc3)n2)cc1 [Example 123, 4-(4-benzhydrylpiperazin-1-yl)-6-(4-chlorophenyl)-2-(pyridin-3-yl)pyrimidine] | > 1000 nM
4 | Clc1ccc(-c2cc(N3CCN(C(c4ccccc4)c4ccc(Cl)cc4)CC3)nc(-c3cccnc3)n2)cc1 (centres unmarked) [Example 124, 4-(4-chlorophenyl)-6-(4-((4-chlorophenyl)(phenyl)methyl)piperazin-1-yl)-2-(pyridin-3-yl)pyrimidine] | > 1000 nM
5 | Clc1ccc(-c2cc(N3CCC4(C=Cc5ccccc54)CC3)nc(-c3cccnc3)n2)cc1 [Example 125, 1′-(6-(4-chlorophenyl)-2-(pyridin-3-yl)pyrimidin-4-yl)spiro[indene-1,4′-piperidine]] | 100 to 1000 nM
6 | Clc1ccc(-c2cc(NC3CCNC3)nc(-c3cccnc3)n2)cc1 (centres unmarked) [Example 126, 6-(4-chlorophenyl)-2-(pyridin-3-yl)-N-(pyrrolidin-3-yl)pyrimidin-4-amine] | > 1000 nM
7 | Clc1ccc(-c2cc(NCCN3CCCC3)nc(-c3cccnc3)n2)cc1 [Example 129, 6-(4-chlorophenyl)-2-(pyridin-3-yl)-N-(2-(pyrrolidin-1-yl)ethyl)pyrimidin-4-amine] | > 1000 nM
8 | O[C@@H]1CNC[C@@H]1Nc1cc(-c2ccc(Cl)cc2)nc(-c2cccnc2)n1 [Example 133, (3R,4S)-4-((6-(4-chlorophenyl)-2-(pyridin-3-yl)pyrimidin-4-yl)amino)pyrrolidin-3-ol] | > 1000 nM
9 | O[C@H]1CNC[C@H]1Nc1cc(-c2ccc(Cl)cc2)nc(-c2cccnc2)n1 [Example 134, (3S,4R)-4-((6-(4-chlorophenyl)-2-(pyridin-3-yl)pyrimidin-4-yl)amino)pyrrolidin-3-ol] | > 1000 nM
10 | Clc1ccc(-c2cc(N3CCCC3)nc(-c3cccnc3)n2)cc1 [Example 135, 4-(4-chlorophenyl)-2-(pyridin-3-yl)-6-(pyrrolidin-1-yl)pyrimidine] | 10 to 100 nM
11 | CC1CCCN1c1cc(-c2ccc(Cl)cc2)nc(-c2cccnc2)n1 (centres unmarked) [Example 136, 4-(4-chlorophenyl)-6-(2-methylpyrrolidin-1-yl)-2-(pyridin-3-yl)pyrimidine] | 100 to 1000 nM
12 | OCC1CCN(c2cc(-c3ccc(Cl)cc3)nc(-c3cccnc3)n2)C1 (centres unmarked) [Example 138, (1-(6-(4-chlorophenyl)-2-(pyridin-3-yl)pyrimidin-4-yl)pyrrolidin-3-yl)methanol] | < 10 nM
13 | F[C@@H]1CCN(c2cc(-c3ccc(Cl)cc3)nc(-c3cccnc3)n2)C1 [Example 139, (R)-4-(4-chlorophenyl)-6-(3-fluoropyrrolidin-1-yl)-2-(pyridin-3-yl)pyrimidine] | 10 to 100 nM
14 | CNC1CCN(c2cc(-c3ccc(Cl)cc3)nc(-c3cccnc3)n2)C1 (centres unmarked) [Example 141, 1-(6-(4-chlorophenyl)-2-(pyridin-3-yl)pyrimidin-4-yl)-N-methylpyrrolidin-3-amine] | > 1000 nM
15 | COC(=O)[C@@H]1CCCN1c1cc(-c2ccc(Cl)cc2)nc(-c2cccnc2)n1 [Example 142, methyl (6-(4-chlorophenyl)-2-(pyridin-3-yl)pyrimidin-4-yl)prolinate] | 100 to 1000 nM
16 | CC(O)C(C)Nc1cc(-c2ccc(Cl)cc2)nc(-c2cccnc2)n1 (centres unmarked) [Example 145, 3-((6-(4-chlorophenyl)-2-(pyridin-3-yl)pyrimidin-4-yl)amino)butan-2-ol] | 100 to 1000 nM
17 | OC[C@H]1CCCN(c2cc(-c3ccc(Cl)cc3)nc(-c3cccnc3)n2)C1 [Example 148, (S)-(1-(6-(4-chlorophenyl)-2-(pyridin-3-yl)pyrimidin-4-yl)piperidin-3-yl)methanol] | 10 to 100 nM
18 | Clc1ccc(-c2cc(NCCN3CCCCC3)nc(-c3cccnc3)n2)cc1 [Example 149, 6-(4-chlorophenyl)-N-(2-(piperidin-1-yl)ethyl)-2-(pyridin-3-yl)pyrimidin-4-amine] | > 1000 nM
19 | OC1(c2cccc(C(F)(F)F)c2)CCN(c2cc(-c3ccc(Cl)cc3)nc(-c3cccnc3)n2)CC1 [Example 151, 1-(6-(4-chlorophenyl)-2-(pyridin-3-yl)pyrimidin-4-yl)-4-(3-(trifluoromethyl)phenyl)piperidin-4-ol] | > 1000 nM
20 | Clc1ccc(-c2cc(N3CCC(N4CCCC4)CC3)nc(-c3cccnc3)n2)cc1 [Example 152, 4-(4-chlorophenyl)-2-(pyridin-3-yl)-6-(4-(pyrrolidin-1-yl)piperidin-1-yl)pyrimidine] | 100 to 1000 nM
21 | CC(=O)C1(c2ccccc2)CCN(c2cc(-c3ccc(Cl)cc3)nc(-c3cccnc3)n2)CC1 [Example 155, 1-(1-(6-(4-chlorophenyl)-2-(pyridin-3-yl)pyrimidin-4-yl)-4-phenylpiperidin-4-yl)ethan-1-one] | > 1000 nM
22 | Clc1ccc(-c2cc(N3CCC(N4CCOCC4)CC3)nc(-c3cccnc3)n2)cc1 [Example 156, 4-(1-(6-(4-chlorophenyl)-2-(pyridin-3-yl)pyrimidin-4-yl)piperidin-4-yl)morpholine] | < 10 nM
23 | Clc1ccc(-c2cc(NCC3CCN(Cc4ccccc4)CC3)nc(-c3cccnc3)n2)cc1 [Example 159, N-((1-benzylpiperidin-4-yl)methyl)-6-(4-chlorophenyl)-2-(pyridin-3-yl)pyrimidin-4-amine] | 100 to 1000 nM
24 | CCOC(=O)CC(=O)C1CCN(c2cc(-c3ccc(Cl)cc3)nc(-c3cccnc3)n2)CC1 [Example 160, ethyl 3-(1-(6-(4-chlorophenyl)-2-(pyridin-3-yl)pyrimidin-4-yl)piperidin-4-yl)-3-oxopropanoate] | > 1000 nM

Other lines, results leading:

Row | IC50 | Compound
25 | > 1000 nM | Clc1ccc(-c2cc(N[C@@H]3CCNC3)nc(-c3cccnc3)n2)cc1 [Example 127, (R)-6-(4-chlorophenyl)-2-(pyridin-3-yl)-N-(pyrrolidin-3-yl)pyrimidin-4-amine]
26 | > 1000 nM | Clc1ccc(-c2cc(NC[C@@H]3CCNC3)nc(-c3cccnc3)n2)cc1 [Example 128, (R)-6-(4-chlorophenyl)-2-(pyridin-3-yl)-N-(pyrrolidin-3-ylmethyl)pyrimidin-4-amine]
27 | > 1000 nM | Clc1ccc(-c2cc(NCCCN3CCCC3)nc(-c3cccnc3)n2)cc1 [Example 130, 6-(4-chlorophenyl)-2-(pyridin-3-yl)-N-(3-(pyrrolidin-1-yl)propyl)pyrimidin-4-amine]
28 | > 1000 nM | CN1CCCC1CCNc1cc(-c2ccc(Cl)cc2)nc(-c2cccnc2)n1 (centres unmarked) [Example 131, 6-(4-chlorophenyl)-N-(2-(1-methylpyrrolidin-2-yl)ethyl)-2-(pyridin-3-yl)pyrimidin-4-amine]
29 | 100 to 1000 nM | Clc1ccc(-c2cc(NC3CCN(Cc4ccccc4)C3)nc(-c3cccnc3)n2)cc1 (centres unmarked) [Example 132, N-(1-benzylpyrrolidin-3-yl)-6-(4-chlorophenyl)-2-(pyridin-3-yl)pyrimidin-4-amine]
30 | > 1000 nM | NC1CCN(c2cc(-c3ccc(Cl)cc3)nc(-c3cccnc3)n2)C1 (centres unmarked) [Example 140, 1-(6-(4-chlorophenyl)-2-(pyridin-3-yl)pyrimidin-4-yl)pyrrolidin-3-amine]
31 | < 10 nM | OC[C@@H]1CCCN(c2cc(-c3ccc(Cl)cc3)nc(-c3cccnc3)n2)C1 [Example 147, (R)-(1-(6-(4-chlorophenyl)-2-(pyridin-3-yl)pyrimidin-4-yl)piperidin-3-yl)methanol]
32 | < 10 nM | N#CC1CCN(c2cc(-c3ccc(Cl)cc3)nc(-c3cccnc3)n2)CC1 [Example 150, 1-(6-(4-chlorophenyl)-2-(pyridin-3-yl)pyrimidin-4-yl)piperidine-4-carbonitrile]
33 | > 1000 nM | OC1(c2ccc(Cl)cc2)CCN(c2cc(-c3ccc(Cl)cc3)nc(-c3cccnc3)n2)CC1 [Example 153, 4-(4-chlorophenyl)-1-(6-(4-chlorophenyl)-2-(pyridin-3-yl)pyrimidin-4-yl)piperidin-4-ol]
34 | > 1000 nM | Clc1ccc(-c2cc(N3CCC(c4cc(Cl)cc(Cl)c4)CC3)nc(-c3cccnc3)n2)cc1 [Example 157, 4-(4-chlorophenyl)-6-(4-(3,5-dichlorophenyl)piperidin-1-yl)-2-(pyridin-3-yl)pyrimidine]
35 | 100 to 1000 nM | Clc1ccc(-c2cc(NCC3CCCN(C4CCCCC4)C3)nc(-c3cccnc3)n2)cc1 (centres unmarked) [Example 158, 6-(4-chlorophenyl)-N-((1-cyclohexylpiperidin-3-yl)methyl)-2-(pyridin-3-yl)pyrimidin-4-amine]
